This data set can be described thus: Human HepG2 cell viability assay in 384 well format. The class given is toxicity, cell-based. More on the design: dose 125 nL, time 70.5 hour; cytotoxicity at 70.5 h: concentration not given beside the values. The following applies: HepG2 cells, read-out: Inhibition.
For `CN(C)c1cccc(C2CCCN2S(N)(=O)=O)c1` (stereo not drawn), the cytotoxicity at 70.5 h was -1.57%.
As for `O=C(NC1CCCN(c2ccc(OC(F)F)cc2)C1)c1c[nH]nn1` (stereo not drawn), the figure is 18.5%.
In the case of `O=C(NC1CCCN(c2ccc(OC(F)F)cc2)C1)c1cnc[nH]1` (stereo not drawn) it was -11.2%.
In the case of `NS(=O)(=O)N1CCC(CSc2ccccc2)C1` (stereo not drawn) it was -9.2%; in that of `Cc1nc(C2(NC(=O)NCc3cc(C#N)ccc3F)CCCC2)no1`, -10.1%; in that of `OCc1ccc(CNc2ccccc2CN2CCC(O)CC2)o1`, -4.84%.
In the case of `O=S(=O)(CCO)Cc1ccc(OCC(F)(F)F)cc1`, the cytotoxicity at 70.5 h is -9.29%.
In the case of `COc1ccccc1CNC1(CCO)CCOCC1` it was 20.6%.
In the case of `Cc1c(Br)cccc1CNC1(CCO)CCOCC1` it was -1.58%; in that of `CC(C)OCCS(=O)(=O)N1CCCC1c1cccc(N(C)C)c1` (stereo not drawn), -5.82%.
As for `CCc1cnc(CN2CCC(O)(c3cc(OC)cc(OC)c3)CC2)o1`, the figure is -12.2%; as for `Cn1c(C2CC2)nc2c1CCN(CCc1ccccn1)C2`, -5.41%; as for `CCSc1ccc(NC(=O)NC(C)c2ccncc2)cn1` (stereo not drawn), -5.74%.
Turning to `CN(C)C(CNC(=O)N(Cc1ccco1)C1CC1)c1cccs1` (stereo not drawn), the cytotoxicity at 70.5 h was -11.4%.
In the case of `Cc1nnc(C(C)N(C)Cc2c(C)nn(-c3ccccc3C)c2C)o1` (stereo not drawn), the cytotoxicity at 70.5 h was found to be 2.96%.
On to `COCCOCCNC(=O)N1CCc2c(F)ccc(F)c2C1`, for which the cytotoxicity at 70.5 h came to 2.28%.
As for `Cc1nccn1-c1ncccc1NC(=O)CCOCC(C)C`, the figure is -7.64%; as for `CN(CC(N)=O)C(=O)C1Cc2cc(Cl)ccc2O1` (stereo not drawn), -5.33%.
In the case of `Cc1cnn(CCCNCc2csc(COc3ccccc3)n2)c1`, the cytotoxicity at 70.5 h was -3.68%.
As for `Cc1ccc(C2CSCCN2C(=O)c2cc(C(N)=O)cs2)o1` (stereo not drawn), the figure is -8.27%.
In the case of `O=C(NC1CC1)c1ccccc1NCc1cn2cccnc2n1` it was -5.34%; in that of `CN1CCN(S(=O)(=O)c2ccc(Cl)c(Cl)c2)c2cnccc21`, -0.75%.
As for `CN1CCN(S(=O)(=O)c2cccnc2)c2cnccc21`, the figure is -3.64%; as for `CN1CCN(S(=O)(=O)c2cccc(F)c2)c2cnccc21`, -2.79%.
As to `O=S(=O)(NC1CCCCC12OCCO2)c1cc(F)cc(F)c1` (stereo not drawn), the cytotoxicity at 70.5 h was -3.19%.
As for `O=S(=O)(NC1CCCCC12OCCO2)c1cc(Cl)cc(Cl)c1` (stereo not drawn), the figure is -3.17%; as for `Cc1[nH]ncc1C(=O)NCC(CO)Cc1ccc(Cl)cc1` (stereo not drawn), -5.24%.
In the case of `CC(CO)(NC(=O)NCc1ccc(Br)s1)C1CC1` (stereo not drawn) it was -8.92%; in that of `Cc1cc2c(cc1NC(=O)NCC(C)C)OCO2`, -8.91%.
As for `CC(C)c1ccc(C(C)N2CCCN(C(N)=O)CC2)cc1` (stereo not drawn), the figure is -5.71%; as for `Cc1cc2c(cc1NC(=O)NC(C)(C)C)OCO2`, -7.87%.
For `c1ccc(Cc2nc(CNCCn3cccn3)cs2)cc1`, the cytotoxicity at 70.5 h came to 1.06%.
In the case of `CC(c1ccc(Br)cc1)N1CCCN(C(N)=O)CC1` (stereo not drawn) it was -5.26%.
As for `O=C(NCC(CO)Cc1ccc(Cl)cc1)c1ccncc1Cl` (stereo not drawn), the figure is -1.15%; as for `CCN(CC)S(=O)(=O)N(Cc1cccc(C)c1)Cc1ccccn1`, 19.3%; as for `Cc1cc(NCc2ccc(CS(N)(=O)=O)cc2)nc(C)n1`, -12.6%.
Turning to `O=C1CN(CCS(=O)(=O)c2ccc(Cl)cc2)CCN1`, the cytotoxicity at 70.5 h was -11.9%.
In the case of `CC(C)CNc1nnc(SC(C(=O)NCc2cccnc2)C(C)C)s1` (stereo not drawn) it was -15.2%.
In the case of `O=C1CCN(CCS(=O)(=O)c2ccc(Cl)cc2)CCN1` it was -11.7%; in that of `COc1ccccc1-c1csc(NC(=O)N2CCN(C)CC2C)n1` (stereo not drawn), -14.7%.
Turning to `CC(C)C(=O)NS(=O)(=O)c1ccc(F)c(C(F)(F)F)c1`, the cytotoxicity at 70.5 h is -10.6%.
As for `CC(C)CCN1CCN(C(=O)c2c[nH]c(=O)[nH]2)CC1`, the figure is -8.02%.
In the case of `COCCN1CCC(Nc2c(F)cc(C#N)cc2F)CC1` it was -14.5%.
As for `CCC1CN(C)c2ccccc2CN1C(=O)Nc1ccccc1OC` (stereo not drawn), the figure is 16.8%; as for `CC(C)OCCN1CCC(Nc2ccc(C#N)cc2F)CC1`, -8.23%.
As to `CCC1CN(C)c2ccccc2CN1C(=O)Nc1cccc(F)c1` (stereo not drawn), the cytotoxicity at 70.5 h is -9.77%.
In the case of `COc1ccccc1NC(=O)NC1(c2noc(CN(C)C)n2)CCCC1` it was 22.4%; in that of `COc1cc(CN(C)Cc2cccnc2)c(SC)cc1OC`, -8.67%.
In the case of `CC(O)CN1CCN(CCOCC(F)(F)F)CC1` (stereo not drawn), the cytotoxicity at 70.5 h is -7.92%.
In the case of `CC(C)(C)C(O)CN1CCN(CCOCC(F)(F)F)CC1` (stereo not drawn) it was -9.97%.
In the case of `CC(C)c1nc(CNC2CCN(C(=O)OC(C)(C)C)CC2)cs1` it was -8.72%; in that of `COc1ccc(CNc2cccnc2-n2cccn2)c(OC)c1OC`, -11.5%.
In the case of `Cc1nc(C2CN(Cc3ccccc3C)CCO2)no1` (stereo not drawn) it was -11%; in that of `CCCNC(=O)CN1CCC(NCc2csc(C(C)C)n2)CC1`, -11.5%.
For the compound `CCS(=O)(=O)CCN(C)Cc1cc(C)ccc1OC`, the cytotoxicity at 70.5 h is -13.6%.
As for `CS(=O)(=O)Cc1ccc(C(=O)NCc2ccc(Cl)cc2Cl)cc1`, the figure is -6.11%; as for `COCCNC(=O)c1ccc2c(=O)n3c(nc2c1)CCCCCC3`, 7.92%; as for `O=S(=O)(NCc1ccc(S(=O)(=O)N2CCCC2)s1)c1cc(Cl)ccc1Cl`, -14.9%.
In the case of `O=S(=O)(NCc1ccc(S(=O)(=O)N2CCCC2)s1)c1ccc(F)cc1Cl` it was -1.37%; in that of `CC(=O)N1CCC(NC(=O)NCc2ncc(-c3ccccc3)o2)CC1`, -3.53%.
In the case of `Cc1cccc2c1NC1(CCCC1)NC2=O` it was -13.5%; in that of `CCn1c(CN(C)Cc2cnc(C)s2)nc2c(F)cccc21`, -24.5%.
For the compound `c1ccc(C(NCc2nnc(-c3ccco3)o2)C2CCC2)cc1` (stereo not drawn), the cytotoxicity at 70.5 h was -14.7%.
As for `CCNC(=O)CCC(=O)NC1(c2cccc(C(F)(F)F)c2)CCC1`, the figure is 16.4%; as for `COCC(O)CNc1ccc(C#N)cc1C(F)(F)F` (stereo not drawn), -9.81%.
Take `Cc1nc(C)c(CCNc2ccc(S(N)(=O)=O)cc2C#N)s1`: the cytotoxicity at 70.5 h is -15%.
As for `CCC(C(=O)Nc1ccc2cn(CC)nc2c1)N1CCCC1=O` (stereo not drawn), the figure is -24.8%.
In the case of `Cc1ccnc(NC(=O)C2CCN(CCCn3ccnc3)CC2)c1` it was -15.3%.
In the case of `COc1cccc(CN(C)Cc2nc(C(C)C)no2)c1` it was 14.7%; in that of `CO[C@H]1CN(C(=O)OC(C)(C)C)CC1NCc1cccn1C` (stereo partly drawn), -8.94%.
Take `CO[C@H]1CN(C(=O)OC(C)(C)C)CC1NCc1cc[nH]c1` (stereo partly drawn): the cytotoxicity at 70.5 h is -20.4%.
For `CCN1CCc2c(cccc2NC(=O)CN(C)C2CCSC2)C1` (stereo not drawn), the cytotoxicity at 70.5 h is -3.51%.
In the case of `Cn1cc(CCNCC2CNc3ccnn3C2)cn1` (stereo not drawn) it was 1.67%.
In the case of `COCCS(=O)(=O)NC(C)c1ccc(-n2nc(C)cc2C)cc1` (stereo not drawn) it was 3.86%; in that of `N#Cc1c(F)cccc1N1CCN(S(=O)(=O)c2cccs2)CC1`, 8.47%.
On to `COc1ccc(C2CCCN2C(=O)NCCNc2ncccn2)cc1` (stereo not drawn), for which the cytotoxicity at 70.5 h is -4.74%.
In the case of `CCCOc1cc(C)ccc1NC(=O)NCCC(=O)N(C)C` it was -2.29%.
In the case of `O=C(NCC1CC1)C1CSCN1S(=O)(=O)c1cccc(F)c1` (stereo not drawn) it was -0.541%; in that of `CC(O)CN1CCC(CNCc2ccc(S(C)(=O)=O)cc2)CC1` (stereo not drawn), -3.17%; in that of `CC(C1CC1)N(C)C(=O)c1cnc(-c2ccc3c(c2)OCO3)s1` (stereo not drawn), 13.8%.
As for `Cc1cccc(N2CCC(NC(=O)CCCc3cccs3)CC2)n1`, the figure is -2.62%; as for `CSCC(CCO)NC(=O)Nc1cc(C)ccc1C` (stereo not drawn), 0.113%.
Consider `OCC1CCCN1c1cc(NCCNc2ccccn2)ncn1` (stereo not drawn), for which the cytotoxicity at 70.5 h was 0.758%.
As for `Cc1cn(-c2ccccc2)nc1NS(=O)(=O)c1cc(C(=O)O)cs1`, the figure is 14.9%; as for `Cc1ccc(C(=O)O)cc1S(=O)(=O)Nc1nn(-c2ccccc2)cc1C`, -0.199%.
In the case of `CC1CN(C)c2ccccc2CN1C(=O)c1ccc[nH]1` (stereo not drawn) it was 0.885%; in that of `OCC1CCCN1c1cc(NCCc2c[nH]c3ccccc23)ncn1` (stereo not drawn), 1.16%.
As for `CC(C)c1nc(CN(C)C2CCN(CC(F)(F)F)C2)no1` (stereo not drawn), the figure is 1.98%; as for `CS(=O)(=O)c1ccc(CNCC2CCN(CCO)CC2)cc1`, 18.2%; as for `CC1CN(C)c2ccccc2CN1C(=O)c1ccncc1` (stereo not drawn), 0.805%.
In the case of `COc1ccc(C2CCCN2C(=O)CCNc2ncccn2)cc1` (stereo not drawn), the cytotoxicity at 70.5 h was -5.82%.
For the compound `Cn1nnc2cc(C(=O)N3CCCC3Cc3ccccc3)ccc21` (stereo not drawn), the cytotoxicity at 70.5 h is -1.35%.
As for `Cc1cccc(CCC(=O)N2CCOCC2c2c(C)n[nH]c2C)c1` (stereo not drawn), the figure is 17.3%; as for `CCN1CC(C(=O)NCc2ccnc(-n3ccnc3C)c2)CC1=O` (stereo not drawn), -1.78%; as for `CCn1ccnc1CN1CCN(Cc2ccccn2)CC1C` (stereo not drawn), 9.97%.
As for `CNc1cc(N2CCCC2CNCc2ccccn2)ncn1` (stereo not drawn), the figure is 14.8%.
As for `NC(=O)c1cc(NC(=O)N2CCCCCC2)ccc1F`, the cytotoxicity at 70.5 h came to 35.1%.
As for `CCN(CC)C(CNS(=O)(=O)c1ccc(C(=O)NC)cc1)c1ccco1` (stereo not drawn), the figure is -8.07%.
In the case of `Cc1cc(C)n(CC2CN(Cc3cccc(C(N)=O)c3)CCO2)n1` (stereo not drawn) it was 6.91%; in that of `O=C(NCCCOCC1CC1)Nc1cccnc1N1CCOCC1`, -5.01%; in that of `Cc1nn(CC(=O)N2CCCCC2Cn2cccn2)c(C)c1Cl` (stereo not drawn), -0.411%.
As for `CC(Oc1ccccc1C(F)(F)F)C(=O)NCC(N)=O` (stereo not drawn), the figure is -1.2%; as for `Cc1cccc(N2CCN(CCCNC(=O)c3nccn3C)CC2)c1`, -3.1%.

The values are drawn from ChEMBL document CHEMBL3507680, “University of Dundee, Gates Library screen for HepG2 cell viability”.
